# Laboratory results: PubChem BioAssay AID1963825 (Molecular Pharmacology Branch, DTP, NCI, 2024)
# Test: Anticancer human tumor 997537-175-T-J1-PDC patient-derived colon adenocarcinoma cell line growth inhibition [POLQ]
# Settings: 997537-175-T-J1-PDC complex spheroid viability, combination with POLQ inhibitors; for IC50: curve of first compound; for viability, T/C: stronger effect = lower value
# Procedure, shortened: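 Growth inhibition in 3D: complex spheroids (tumor PDC, HUVEC, MSC) treated with POLQ inhibitor combinations; where Cmax unknown, highest tested concentration 10 microM, except SN-38 at 1 microM.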
# 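Further: luminescence signal used as a surrogate for viable cells; spheroids exposed to drugs for seven days before readout.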
smiles,measurement,setting,value
CNCc1ccc(-c2[nH]c3cc(F)cc4c3c2CCNC4=O)cc1 + Nc1ccc(C#CCN(C(=O)Cc2ncc(C(F)(F)F)cc2C(F)(F)F)c2ccc(F)cc2)nn1,IC50,second compound 0.0316 µM,> 10 µM
same,IC50,second compound 0.1 µM,> 10 µM
same,IC50,second compound 0.316 µM,> 10 µM
same,IC50,second compound 1 µM,> 10 µM
same,IC50,second compound 3.16 µM,> 10 µM
same,IC50,second compound 10 µM,> 10 µM
same,"viability, T/C","second compound 0.0316 µM, first compound 0.0316 µM",106%
same,"viability, T/C","second compound 0.0316 µM, first compound 0.1 µM",102%
same,"viability, T/C","second compound 0.0316 µM, first compound 0.316 µM",100%
same,"viability, T/C","second compound 0.0316 µM, first compound 1 µM",97.1%
same,"viability, T/C","second compound 0.0316 µM, first compound 3.16 µM",103%
same,"viability, T/C","second compound 0.0316 µM, first compound 10 µM",104%
same,"viability, T/C","second compound 0.1 µM, first compound 0.0316 µM",98.6%
same,"viability, T/C","second compound 0.1 µM, first compound 0.1 µM",102%
same,"viability, T/C","second compound 0.1 µM, first compound 0.316 µM",93.2%
same,"viability, T/C","second compound 0.1 µM, first compound 1 µM",95.5%
same,"viability, T/C","second compound 0.1 µM, first compound 3.16 µM",99.2%
same,"viability, T/C","second compound 0.1 µM, first compound 10 µM",101%
same,"viability, T/C","second compound 0.316 µM, first compound 0.0316 µM",87.3%
same,"viability, T/C","second compound 0.316 µM, first compound 0.1 µM",108%
same,"viability, T/C","second compound 0.316 µM, first compound 0.316 µM",106%
same,"viability, T/C","second compound 0.316 µM, first compound 1 µM",90.8%
same,"viability, T/C","second compound 0.316 µM, first compound 3.16 µM",97.7%
same,"viability, T/C","second compound 0.316 µM, first compound 10 µM",99.7%
same,"viability, T/C","second compound 1 µM, first compound 0.0316 µM",90%
same,"viability, T/C","second compound 1 µM, first compound 0.1 µM",108%
same,"viability, T/C","second compound 1 µM, first compound 0.316 µM",102%
same,"viability, T/C","second compound 1 µM, first compound 1 µM",94.6%
same,"viability, T/C","second compound 1 µM, first compound 3.16 µM",110%
same,"viability, T/C","second compound 1 µM, first compound 10 µM",89.8%
same,"viability, T/C","second compound 3.16 µM, first compound 0.0316 µM",93.1%
same,"viability, T/C","second compound 3.16 µM, first compound 0.1 µM",95.6%
same,"viability, T/C","second compound 3.16 µM, first compound 0.316 µM",85.1%
same,"viability, T/C","second compound 3.16 µM, first compound 1 µM",99.1%
same,"viability, T/C","second compound 3.16 µM, first compound 3.16 µM",96.2%
same,"viability, T/C","second compound 3.16 µM, first compound 10 µM",111%
same,"viability, T/C","second compound 10 µM, first compound 0.0316 µM",87.4%
same,"viability, T/C","second compound 10 µM, first compound 0.1 µM",104%
same,"viability, T/C","second compound 10 µM, first compound 0.316 µM",101%
same,"viability, T/C","second compound 10 µM, first compound 1 µM",96.8%
same,"viability, T/C","second compound 10 µM, first compound 3.16 µM",110%
same,"viability, T/C","second compound 10 µM, first compound 10 µM",114%
